# Reference: ChEMBL document CHEMBL1130469, “Prolyl endopeptidase inhibitors1: N-acyl derivatives of L-thioproline-pyrrolidine” (Bioorg Med Chem Lett, 1997)
# Molecular target: T1, Prolyl endopeptidase (Rattus norvegicus, UniProt O70196)
# T1 sequence (O70196 whole entry): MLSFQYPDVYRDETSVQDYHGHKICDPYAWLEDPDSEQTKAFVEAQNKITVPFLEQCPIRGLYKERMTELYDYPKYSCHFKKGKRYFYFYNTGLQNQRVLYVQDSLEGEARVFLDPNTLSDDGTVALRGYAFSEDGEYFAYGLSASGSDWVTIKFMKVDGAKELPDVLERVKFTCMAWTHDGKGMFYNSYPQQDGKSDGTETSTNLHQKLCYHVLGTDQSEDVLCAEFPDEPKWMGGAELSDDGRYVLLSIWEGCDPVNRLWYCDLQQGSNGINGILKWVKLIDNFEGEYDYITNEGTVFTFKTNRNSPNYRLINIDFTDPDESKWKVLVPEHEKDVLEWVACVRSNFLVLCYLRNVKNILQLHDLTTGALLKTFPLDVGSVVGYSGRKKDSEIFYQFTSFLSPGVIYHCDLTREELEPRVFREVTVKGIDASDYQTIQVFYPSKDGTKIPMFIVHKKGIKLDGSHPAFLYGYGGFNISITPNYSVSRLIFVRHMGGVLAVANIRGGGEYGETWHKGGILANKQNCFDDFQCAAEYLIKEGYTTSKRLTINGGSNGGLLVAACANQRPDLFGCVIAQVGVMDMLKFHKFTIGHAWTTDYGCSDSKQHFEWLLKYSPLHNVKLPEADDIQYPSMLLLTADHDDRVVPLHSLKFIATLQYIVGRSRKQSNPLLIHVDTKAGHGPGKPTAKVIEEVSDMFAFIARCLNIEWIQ
# Assay: Inhibitory activity against rat brain Prolyl endopeptidase (PEP)
row,IC50 [nM],SMILES
1,80,CCCCCCCCCCCCCC(=O)N1CSC[C@H]1C(=O)N1CCCC1
2,167,CCCC(=O)N1CSC[C@H]1C(=O)N1CCCC1
3,904,CCCCCCCCCCCCCCCCCC(=O)N1CSC[C@H]1C(=O)N1CCCC1
4,11,CCCCCCCC(=O)N1CSC[C@H]1C(=O)N1CCCC1
5,38,CCCCCCCCCC(=O)N1CSC[C@H]1C(=O)N1CCCC1
6,37,CCCCC(=O)N1CSC[C@H]1C(=O)N1CCCC1
7,73,CCCCC/C=C(\C)C(=O)N1CCC[C@H]1C(=O)N1CCCC1
8,42,CCCCCCCCCCC(=O)N1CSC[C@H]1C(=O)N1CCCC1
9,207,CCC/C=C/C=C(\C)C(=O)N1CCC[C@H]1C(=O)N1CCCC1
10,37,CCCCCC(=O)N1CSC[C@H]1C(=O)N1CCCC1
11,46,CCCCCCCCCCCC(=O)N1CSC[C@H]1C(=O)N1CCCC1
12,17,CCCCCCC(=O)N1CSC[C@H]1C(=O)N1CCCC1
13,34,CCCCC/C=C/C(=O)N1CCC[C@H]1C(=O)N1CCCC1
14,38,CCCCCCCCC(=O)N1CSC[C@H]1C(=O)N1CCCC1
15,1160,CCCCCCCCCCCCCCCCCCCC(=O)N1CSC[C@H]1C(=O)N1CCCC1
16,216,CCCCCCCCCCCCCCCC(=O)N1CSC[C@H]1C(=O)N1CCCC1
17,104,CCCCCCCCC=CCCCCCCCC(=O)N1CSC[C@H]1C(=O)N1CCCC1
